What was measured:
[1] = tested on: Hippocampus; assay: Biodistribution in BALB/c mouse hippocampus at 7 to 8 KBq, iv after 60 mins; assay type: ADME, organism-based; details: in vivo, 1 h
[2] = tested on: Heart; assay: Biodistribution in BALB/c mouse heart at 7 to 8 KBq, iv after 120 mins; assay type: ADME, organism-based; details: in vivo, 2 h
[3] = tested on: Hippocampus; assay: Biodistribution in BALB/c mouse hippocampus at 7 to 8 KBq, iv after 15 mins; assay type: ADME, organism-based; details: in vivo, 0.25 h
[4] = tested on: Pancreas; assay: Biodistribution in BALB/c mouse pancreas at 7 to 8 KBq, iv after 120 mins; assay type: ADME, organism-based; details: in vivo, 2 h
[5] = tested on: Cortex; assay: Biodistribution in BALB/c mouse cortex at 7 to 8 KBq, iv after 60 mins; assay type: ADME, organism-based; details: in vivo, 1 h
[6] = tested on: Striatum; assay: Biodistribution in BALB/c mouse striatum at 7 to 8 KBq, iv after 60 mins; assay type: ADME, organism-based; details: in vivo, 1 h
[7] = tested on: Cortex; assay: Biodistribution in BALB/c mouse cortex at 7 to 8 KBq, iv after 15 mins; assay type: ADME, organism-based; details: in vivo, 0.25 h
[8] = tested on: Thyroid gland; assay: Biodistribution in BALB/c mouse thyroid at 7 to 8 KBq, iv after 120 mins; assay type: ADME, organism-based; details: in vivo, 2 h
[9] = tested on: Striatum; assay: Biodistribution in BALB/c mouse striatum at 7 to 8 KBq, iv after 15 mins; assay type: ADME, organism-based; details: in vivo, 0.25 h
[10] = tested on: Thyroid gland; assay: Biodistribution in BALB/c mouse thyroid at 7 to 8 KBq, iv after 15 mins; assay type: ADME, organism-based; details: in vivo, 0.25 h
[11] = tested on: Lung; assay: Biodistribution in BALB/c mouse lung at 7 to 8 KBq, iv after 5 mins; assay type: ADME, organism-based; details: in vivo
[12] = tested on: Liver; assay: Biodistribution in BALB/c mouse liver at 7 to 8 KBq, iv after 15 mins; assay type: ADME, organism-based; details: in vivo, 0.25 h
[13] = tested on: Intestine; assay: Biodistribution in BALB/c mouse intestine at 7 to 8 KBq, iv after 5 mins; assay type: ADME, organism-based; details: in vivo
[14] = tested on: Liver; assay: Biodistribution in BALB/c mouse liver at 7 to 8 KBq, iv after 120 mins; assay type: ADME, organism-based; details: in vivo, 2 h
[15] = tested on: Pancreas; assay: Biodistribution in BALB/c mouse pancreas at 7 to 8 KBq, iv after 60 mins; assay type: ADME, organism-based; details: in vivo, 1 h
[16] = tested on: Medulla; assay: Biodistribution in BALB/c mouse medulla at 7 to 8 KBq, iv after 15 mins; assay type: ADME, organism-based, Medulla of organ; details: in vivo, 0.25 h
[17] = tested on: Intestine; assay: Biodistribution in BALB/c mouse intestine at 7 to 8 KBq, iv after 120 mins; assay type: ADME, organism-based; details: in vivo, 2 h
[18] = tested on: Spleen; assay: Biodistribution in BALB/c mouse spleen at 7 to 8 KBq, iv after 60 mins; assay type: ADME, organism-based; details: in vivo, 1 h
[19] = tested on: Cerebellum; assay: Biodistribution in BALB/c mouse cerebellum at 7 to 8 KBq, iv after 5 mins; assay type: ADME, organism-based; details: in vivo
[20] = tested on: Spleen; assay: Biodistribution in BALB/c mouse spleen at 7 to 8 KBq, iv after 5 mins; assay type: ADME, organism-based; details: in vivo
[21] = tested on: Thalamus; assay: Biodistribution in BALB/c mouse thalamus at 7 to 8 KBq, iv after 120 mins; assay type: ADME, organism-based; details: in vivo, 2 h
[22] = tested on: Mus musculus; assay: Biodistribution in BALB/c mouse upper body at 7 to 8 KBq, iv after 15 mins; assay type: ADME, organism-based; details: in vivo, 0.25 h
[23] = tested on: Blood; assay: Biodistribution in BALB/c mouse blood at 7 to 8 KBq, iv after 15 mins; assay type: ADME, organism-based; details: in vivo, 0.25 h
[24] = tested on: Heart; assay: Biodistribution in BALB/c mouse heart at 7 to 8 KBq, iv after 5 mins; assay type: ADME, organism-based; details: in vivo
[25] = tested on: Stomach; assay: Biodistribution in BALB/c mouse stomach at 7 to 8 KBq, iv after 15 mins; assay type: ADME, organism-based; details: in vivo, 0.25 h
[26] = tested on: Lung; assay: Biodistribution in BALB/c mouse lung at 7 to 8 KBq, iv after 15 mins; assay type: ADME, organism-based; details: in vivo, 0.25 h
[27] = tested on: Liver; assay: Biodistribution in BALB/c mouse liver at 7 to 8 KBq, iv after 5 mins; assay type: ADME, organism-based; details: in vivo
[28] = tested on: Striatum; assay: Biodistribution in BALB/c mouse striatum at 7 to 8 KBq, iv after 5 mins; assay type: ADME, organism-based; details: in vivo
[29] = tested on: Blood; assay: Biodistribution in BALB/c mouse blood at 7 to 8 KBq, iv after 5 mins; assay type: ADME, organism-based; details: in vivo
[30] = tested on: Thalamus; assay: Biodistribution in BALB/c mouse thalamus at 7 to 8 KBq, iv after 15 mins; assay type: ADME, organism-based; details: in vivo, 0.25 h
[31] = tested on: Medulla; assay: Biodistribution in BALB/c mouse medulla at 7 to 8 KBq, iv after 120 mins; assay type: ADME, organism-based, Medulla of organ; details: in vivo, 2 h
[32] = tested on: Mus musculus; assay: Biodistribution in BALB/c mouse upper body at 7 to 8 KBq, iv after 5 mins; assay type: ADME, organism-based; details: in vivo
[33] = tested on: Hippocampus; assay: Biodistribution in BALB/c mouse hippocampus at 7 to 8 KBq, iv after 120 mins; assay type: ADME, organism-based; details: in vivo, 2 h
[34] = tested on: Brain; assay: Biodistribution in BALB/c mouse brain at 7 to 8 KBq, iv after 120 mins; assay type: ADME, organism-based; details: in vivo, 2 h
[35] = tested on: Lung; assay: Biodistribution in BALB/c mouse lung at 7 to 8 KBq, iv after 60 mins; assay type: ADME, organism-based; details: in vivo, 1 h
[36] = tested on: Kidney; assay: Biodistribution in BALB/c mouse kidney at 7 to 8 KBq, iv after 15 mins; assay type: ADME, organism-based; details: in vivo, 0.25 h
[37] = tested on: Mus musculus; assay: Biodistribution in BALB/c mouse upper body at 7 to 8 KBq, iv after 60 mins; assay type: ADME, organism-based; details: in vivo, 1 h
[38] = tested on: Liver; assay: Biodistribution in BALB/c mouse liver at 7 to 8 KBq, iv after 60 mins; assay type: ADME, organism-based; details: in vivo, 1 h

Drug uptake [1]: 2.52 %ID
Drug uptake [2]: 0.05 %ID
Drug uptake [3]: 6.64 %ID
Drug uptake [4]: 0.16 %ID
Drug uptake [5]: 2.05 %ID
Drug uptake [6]: 2.11 %ID
Drug uptake [7]: 6.65 %ID
Drug uptake [8]: 1.3 %ID
Drug uptake [9]: 6.76 %ID
Drug uptake [10]: 0.13 %ID
Drug uptake [11]: 4.01 %ID
Drug uptake [12]: 10.38 %ID
Drug uptake [13]: 9.16 %ID
Drug uptake [14]: 9.8 %ID
Drug uptake [15]: 0.34 %ID
Drug uptake [16]: 5.23 %ID
Drug uptake [17]: 34.13 %ID
Drug uptake [18]: 0.13 %ID
Drug uptake [19]: 6.16 %ID
Drug uptake [20]: 0.37 %ID
Drug uptake [21]: 0.2 %ID
Drug uptake [22]: 17.41 %ID
Drug uptake [23]: 3.31 %ID
Drug uptake [24]: 0.6 %ID
Drug uptake [25]: 3.56 %ID
Drug uptake [26]: 1.6 %ID
Drug uptake [27]: 11.12 %ID
Drug uptake [28]: 7.28 %ID
Drug uptake [29]: 4.17 %ID
Drug uptake [30]: 6.15 %ID
Drug uptake [31]: 0.16 %ID
Drug uptake [32]: 23.3 %ID
Drug uptake [33]: 0.27 %ID
Drug uptake [34]: 0.1 %ID
Drug uptake [35]: 0.5 %ID
Drug uptake [36]: 4.41 %ID
Drug uptake [37]: 11.54 %ID
Drug uptake [38]: 12.03 %ID
Compound: CN1CCN(C2=Nc3cc([125I])ccc3Nc3ccccc32)CC1 [[125I]I-OZAPINE]
